Results reported in US20210363170A1, “4'-THIO-NUCLEOTIDE AND -NUCLEOSIDE PRODRUGS FOR THE TREATMENT OF CANCER” (Southern Research Institute, priority 2018, published 2021).
Read-outs that look alike come from different tables or passages of the source.

Legend:
Format in all cases: cell-based
DNMT-1 = assay: Western blot analysis of DNMT-1 in CEM cells; details: DNMT-1 depletion in CEM cells, 96 hours
Experimental: Cells were treated with serial dilutions of each compound (starting 100 uM for HCT-116 and NCI-H23 cells, and 20 uM for KG-1a and CCRF-CEM cells) or with DMSO as control for 96 hours. Cell lysates were collected and proteins were separated with a SDS-PAGE gel, transferred to a nitrocellulose membrane, blocked in 5% non-fat milk in TBS-T, and probed with anti DNMT-1 (1:7000) rabbit polyclonal antibodies (cat #ab19905, Abcam) in 5% non-fat milk in TBS-T overnight. Membranes were washed three times with TBS-T. The anti-rabbit IgG (7074p2, Cell Signaling) secondary antibody was added at a concentration of 1:5000 in 5% non-fat milk in TBS-T for two hours in room temperature. Membranes were then washed three times with TBS-T, 5 minutes each time. Membranes were then incubated with SuperSignal West Pico Chemiluminescent Substrate (#34080 Thermo) and exposed onto film. Membranes were stripped with stripping buffer (#21059, Thermo) and re-probed with mouse anti tubulin 1:10,000 (T9026, Sigma) and anti-mouse IgG 1:5,000 (70′76p2, Cell Signaling).

KG-1a cells = assay: Cell viability assay (CellTiter Glo, 72 hours) in KG-1a cells
Experimental: (§1) KG1a (CCL-246.1, ATCC) and CCRF-CEM (CCL-199, ATCC) cells were grown in RPMI-1640 media containing 10% FBS in T-75 flasks to a density of 1×10^6 cells per mL. Exponentially gown cells were used for the assay. Day 1: 7.5×10^3 cells were seeded in each well of 96 well plate. Day 2: Cells were treated with serial dilutions of each compound (starting 20 uM) or with DMSO as control for 72 hours. Day 5: CellTiter Glo (G9241, Promega) was added to the media of each well and measured by plate reader (Synergy 4, Biotek). Data analysis: Using GraphPad Prism 7 (GraphPad).

CCRF-CEM cells = assay: Cell viability assay (CellTiter Glo, 72 hours) in CEM cells
Experimental: as §1

[1] = Homo sapiens, KG-1a, 72 h, read-out: Cell Line IC50 (μM) KG-1a
[2] = Homo sapiens, CCRF-CEM, 72 h, read-out: Cell Line IC50 (μM) CEM
[3] = read-out: Cell Line IC50 (μM) KG-1a
[4] = read-out: Cell Line IC50 (μM) CEM

| SMILES | IC50 (DNMT-1) [nM] | IC50 (KG-1a cells; [1]) [µM] | IC50 (CCRF-CEM cells; [2]) [µM] | other results |
| --- | --- | --- | --- | --- |
| C[C@H](N[P@](=O)(OC[C@H]1S[C@@H](n2cnc(N)nc2=O)C[C@@H]1O)Oc1ccccc1)C(=O)OCc1ccc([N+](=O)[O-])o1 [Compound 7, (5-nitrofuran-2-yl)methyl ((S)-(((2R,3S,5R)-5-(4-amino-2-oxo-1,3,5-triazin-1(2H)-yl)-3-hydroxytetrahydro-thiophen-2-yl)-methoxy)(phenoxy)-phosphoryl)-L-alaninate] | 220 | 0.76 | 1.71 |  |
| CC(C)OC(=O)[C@H](C)N[P@](=O)(OC[C@H]1S[C@@H](n2cnc(N)nc2=O)C[C@@H]1O)Oc1ccccc1 [Compound 4, Isopropyl ((S)-(((2R,3S,5R)-5-(4-amino-2-oxo-1,3,5-triazin-1(2H)-yl)-3-hydroxytetrahydrothiophen-2-yl)methoxy)(phenoxy)phosphoryl)-L-alaninate] | 850 | 0.57 | 0.24 |  |
| C[C@H](NP(=O)(OC[C@H]1S[C@@H](n2cnc(N)nc2=O)CC1O)Oc1cccc2ccccc12)C(=O)OCc1ccccc1 (single isomer, unassigned) [Compound 9 Diastereomer 1] |  |  |  | IC50 (DNMT-1; listed as 9 Diastereomer 1): 300 nM; IC50 (KG-1a cells; listed as 9 Diastereomer 1, read-out: Cell Line IC50 (μM) KG-1a): 1.1 µM; IC50 (CCRF-CEM cells; listed as 9 Diastereomer 1, read-out: Cell Line IC50 (μM) CEM): 0.5 µM |
| C[C@H](NP(=O)(OC[C@H]1S[C@@H](n2cnc(N)nc2=O)CC1O)Oc1ccccc1)C(=O)OC1CCCC1 (single isomer, unassigned) [Compound 8 Diastereomer 1] |  | 0.6 | 2.08 | IC50 (DNMT-1; listed as 8 Diastereomer 1): 330 nM |
| CCC(CC)COC(=O)[C@H](C)NP(=O)(OC[C@H]1S[C@@H](n2cnc(N)nc2=O)C[C@@H]1O)Oc1cccc2ccccc12 (single isomer, unassigned) [Compound 11 Diastereomer 1] | 500 | 0.6 | 0.2 |  |
| CCOC(=O)[C@H](C)N[P@](=O)(OC[C@H]1S[C@@H](n2cnc(N)nc2=O)C[C@@H]1O)Oc1ccccc1 [Compound 6, Ethyl ((S)-(((2R,3S,5R)-5-(4-amino-2-oxo-1,3,5-triazin-1(2H)-yl)-3-hydroxytetrahydrothiophen-2-yl)-methoxy)(phenoxy)-phosphoryl)-L-alaninate] | 350 | 0.31 | 1.73 |  |
| CC(C)COC(=O)[C@H](C)NP(=O)(OC[C@H]1S[C@@H](n2cnc(N)nc2=O)CC1O)Oc1cccc2ccccc12 (single isomer, unassigned) [Compound 10 Diastereomer 2] |  |  |  | IC50 (DNMT-1; listed as 10 Diastereomer 2): 800 nM; IC50 (KG-1a cells; [3]): 0.3 µM; IC50 (CCRF-CEM cells; [4]): 0.2 µM |
| CC(C)COC(=O)[C@H](C)N[P@](=O)(OC[C@H]1S[C@@H](n2cnc(N)nc2=O)C[C@@H]1O)Oc1ccccc1 [Compound 2, Isobutyl ((S)-(((2R,3S,5R)-5-(4-amino-2-oxo-1,3,5-triazin-1(2H)-yl)-3-hydroxytetrahydrothiophen-2-yl)methoxy)(phenoxy)phosphoryl)-L-alaninate] | 800 | 1.34 | 0.24 |  |
| CCC(CC)COC(=O)[C@H](C)NP(=O)(OC[C@H]1S[C@@H](n2cnc(N)nc2=O)CC1O)Oc1cccc2ccccc12 (single isomer, unassigned) [Compound 11 Diastereomer 2] | 500 | 0.6 | 0.08 |  |
| C[C@H](NP(=O)(OC[C@H]1S[C@@H](n2cnc(N)nc2=O)CC1O)Oc1cccc2ccccc12)C(=O)OCc1ccccc1 (single isomer, unassigned) [Compound 9 Diastereomer 2] |  |  |  | IC50 (DNMT-1; listed as 9 Diastereomer 2): 1400 nM; IC50 (KG-1a cells; listed as 9 Diastereomer 2, read-out: Cell Line IC50 (μM) KG-1a): 0.4 µM; IC50 (CCRF-CEM cells; listed as 9 Diastereomer 2, read-out: Cell Line IC50 (μM) CEM): 0.2 µM |
| CC(C)OC(=O)[C@H](C)N[P@](=O)(OC[C@H]1S[C@@H](n2ccc(N)nc2=O)CC1O)Oc1ccccc1 (stereo partly drawn) [Compound 15] | 330 | 0.9 | 0.37 |  |
| Nc1ccn([C@H]2C[C@@H](O)[C@@H](CO)S2)c(=O)n1 [T-dCyd, 4-amino-1-[(2R,4R,5R)-4-hydroxy-5-(hydroxymethyl)thiolan-2-yl]pyrimidin-2-one, reference compound] | 470 |  |  | IC50 (KG-1a cells; Homo sapiens, read-out: Cell Line IC50 (μM) KG-1a): 0.48 µM; IC50 (CCRF-CEM cells; Homo sapiens, CCRF-CEM, read-out: Cell Line IC50 (μM) CEM): 0.08 µM |
| CCC(CC)COC(=O)[C@H](C)N[P@](=O)(OC[C@H]1S[C@@H](n2ccc(N)nc2=O)CC1O)Oc1ccccc1 (stereo partly drawn) [Compound 14] | 1000 | 0.62 | 0.15 |  |
| CC(C)OC(=O)[C@H](C)NP(=O)(OC[C@H]1S[C@@H](n2cnc(N)nc2=O)C[C@@H]1O)Oc1cccc2ccccc12 (single isomer, unassigned) [Compound 12 Diastereomer 1] |  | 0.6 |  | IC50 (DNMT-1; listed as 12 Diastereomer 1): 800 nM; IC50 (CCRF-CEM cells; listed as 12 Diastereomer 1, read-out: Cell Line IC50 (μM) CEM): 0.3 µM |
| CC(C)COC(=O)[C@H](C)NP(=O)(OC[C@H]1S[C@@H](n2cnc(N)nc2=O)CC1O)Oc1cccc2ccccc12 (single isomer, unassigned) [Compound 10 Diastereomer 1] |  | 0.3 | 0.2 | IC50 (DNMT-1; listed as 10 Diastereomer 1): 600 nM |
| CC(C)OC(=O)[C@H](C)NP(=O)(OC[C@H]1S[C@@H](n2cnc(N)nc2=O)C[C@@H]1O)Oc1cccc2ccccc12 (single isomer, unassigned) [Compound 12 Diastereomer 2] |  |  |  | IC50 (DNMT-1; listed as 12 Diastereomer 2): 1000 nM; IC50 (KG-1a cells; [3]): 0.7 µM; IC50 (CCRF-CEM cells; listed as 12 Diastereomer 2, read-out: Cell Line IC50 (μM) CEM): 0.1 µM |
| C[C@H](N[P@](=O)(OC[C@H]1S[C@@H](n2cnc(N)nc2=O)C[C@@H]1O)Oc1ccccc1)C(=O)OCc1ccccc1 [Compound 1, Benzyl ((S)-(((2R,3S,5R)-5-(4-amino-2-oxo-1,3,5-triazin-1(2H)-yl)-3-hydroxytetrahydrothiophen-2-yl)methoxy)(phenoxy)phosphoryl)-L-alaninate] | 1200 | 0.92 | 0.13 |  |
| C[C@H](NP(=O)(OC[C@H]1S[C@@H](n2cnc(N)nc2=O)CC1O)Oc1ccccc1)C(=O)OC1CCCC1 (single isomer, unassigned) [Compound 8 Diastereomer 2] |  |  |  | IC50 (DNMT-1; listed as 8 Diastereomer 2): 450 nM; IC50 (KG-1a cells; [3]): 1.04 µM; IC50 (CCRF-CEM cells; [4]): 1.65 µM |
| COC(=O)[C@H](C)N[P@](=O)(OC[C@H]1S[C@@H](n2cnc(N)nc2=O)C[C@@H]1O)Oc1ccccc1 [Compound 5, Methyl ((S)-(((2R,3S,5R)-5-(4-amino-2-oxo-1,3,5-triazin-1(2H)-yl)-3-hydroxytetrahydrothiophen-2-yl)-methoxy)(phenoxy)-phosphoryl)-L-alaninate] | 610 | 1.67 | 2.06 |  |
